Literature values, collected in the CATMoS acute toxicity set (Mansouri et al. 2021).
Several values for one entry are separate records, joined by “and”; a condition that tells them apart may be missing. Equal entries are not always repeated.

assay: rat acute oral toxicity; conditions: in vivo
Excerpt: […]The data set underlying the modeling effort for this project was initially compiled by NICEATM and U.S. EPA’s CCTE. Briefly, LD50 data were collected from rat acute oral systemic toxicity tests, including limit tests, ranges/confidence intervals, and discrete LD50 values. The full data set included 21,200 LD50 entries for 15,688 substances. […] Data were reviewed to ensure that LD50 values with obvious errors in the extracted data such as unit conversion errors (e.g., comma and decimal separator misplacements) were either fixed or removed. After this review, 16,209 LD50 values remained. Many of the chemicals represented had multiple LD50 entries, requiring that a single representative value per Chemical Abstracts Service Registry Number (CASRN) identifier be defined to facilitate modeling efforts. Based on ATWG feedback and to define the representative LD50 as a protective value while accounting for the distribution across multiple LD50s, the median of the lowest quartile was computed using only discrete LD50 values (omitting limit test data and range and confidence interval data). A detailed summary of the data compilation is available online on the NICEATM webpage dedicated to the collaborative modeling project (NTP 2020).
[…][…] For categorical designations, limit test and range/confidence interval LD50 data were integrated wherever possible. As such, the number of chemicals with end point values/calls varies across the modeling end points (Table 3) based on whether chemicals had representative LD50 values and/or other data. If a chemical had both, the representative value was used to determine categorical calls rather than limit test data. Some data were useable only for certain end points and categories depending on the thresholds. For example, ranges that spanned multiple hazard categories were considered only for the binary (very toxic/nontoxic) end points and omitted from rendering a determination for hazard category assignment.
[…]The final data set comprising 11,992 chemicals was split into training and evaluation sets […], respectively. This process was performed semirandomly by ordering chemicals based on the five end points (categorical and continuous LD50 values) and partitioning every fourth record into the evaluation set accordingly. This approach was taken to ensure an equivalent distribution of the LD50 values and the different hazard categories between the training and the evaluation sets without supervised sampling of the chemicals based on structures (Figure 1A). The sources of the chemical structures were also kept equivalent between the two sets, with chemical structures obtained from DSSTox, being the highest quality, representing over 75% of each set (Figure 1B).

Compound	LD50
CCN(O)CC	2190 mg/kg
CC(C)=CCCC(C)CC#N (centres undefined)	5300 mg/kg
COc1ccc2c(c1)[C@@]13CCCC[C@H]1[C@@H](C2)N(C)CC3	242 mg/kg
CCOc1ccc([N+](=O)[O-])cc1CNCCO	25 mg/kg
CCc1c2c(nc3ccc(OC(=O)N4CCC(N5CCCCC5)CC4)cc13)-c1cc3c(c(=O)n1C2)COC(=O)C3(O)CC (centres undefined)	867 mg/kg
Cc1ccc(N=C=O)cc1N=C=O	5800 mg/kg
CCCC(=O)N(C)C(=O)Oc1cc(C)cc(C(C)C)c1	1220 mg/kg
CN1CC[C@]23CCCC[C@H]2[C@H]1Cc1ccc(O)cc13	150 mg/kg
Oc1c(Cl)cc(Cl)c(Cl)c1Cl	140 mg/kg
O=C1Nc2ccc(Cl)cc2C(c2ccccc2Cl)=NC1O (centres undefined)	4500 mg/kg
C=CCN1CCCC1=Nc1ccc(Cl)c(Cl)c1	1850 mg/kg
CCN(Cc1ccccc1)N=O	250 mg/kg
C=C(Cl)C(OC(C)=O)OC(C)=O	320 mg/kg
OC(Nc1nccs1)C(Cl)(Cl)Cl (centres undefined)	2500 mg/kg
CN(C)CCN(C)n1cc(-c2ccccc2)c2ccccc21	1160 mg/kg
CCN(CC)C(=O)c1ccc(O)c(OC)c1	154 mg/kg
CN(CCC#N)CCC#N	890 mg/kg
c1ccc(CCc2ccccc2)cc1	4520 mg/kg
FCCOC(Cl)C(Cl)(Cl)Cl (centres undefined)	18 mg/kg
COP(=O)(OC)OC(C)=CC(=O)OCc1ccc(Cl)cc1	139 mg/kg
CCCCC/C(=C/c1ccccc1)CO	4000 mg/kg
ClCc1ccccn1	316 mg/kg
CC(C)(C)c1ccc(OCC(O)COc2ccc(C(=O)O)cc2)cc1 (centres undefined)	2400 mg/kg
CCOC(=O)CN1CCN(C(=O)C=Cc2cc(OC)c(OC)c(OC)c2)CC1	4190 mg/kg
CNC(=O)O/N=C/C(C)(C)S(C)=O (centres undefined)	0.49 mg/kg
O=c1n(CC2CO2)c(=O)n(CC2CO2)n1CC1CO1 (centres undefined)	250 mg/kg
CC(C)(C=O)CO	3200 mg/kg

Compound	LD50
COc1ccc(-c2oc3ccc(C(=O)O)cc3c(=O)c2OC(C)C)cc1	1480 mg/kg
COP(=O)(Oc1cc(Cl)c(Br)cc1Cl)c1ccccc1 (centres undefined)	118 mg/kg
CCC(C)(C)c1ccc(O)c(C(C)(C)CC)c1	330 mg/kg
O=C(O)CCSCCC(=O)O	3000 mg/kg
CCCCCCCCCCCCCCCCCCCCCCO	10000 mg/kg
Cc1cc(=S)c(N)n[nH]1	1980 mg/kg
CC(C)=CC1C(C(=O)OCc2ccc(C)cc2C)C1(C)C (centres undefined)	40000 mg/kg
CCCCCCCCCCCCCCCC[N+](C)(C)C	410 mg/kg
CN(C)CCOCCOC(=O)N1c2ccccc2Sc2ccccc21	1500 mg/kg
C[C@H](CCC(=O)O)[C@H]1CC[C@H]2[C@@H]3CC[C@@H]4C[C@H](O)CC[C@]4(C)[C@H]3C[C@H](O)[C@]12C	1370 mg/kg and 1000 mg/kg
Cc1ccc(N2C(=O)C=CC2=O)cc1N1C(=O)C=CC1=O	2400 mg/kg
C=CC(C)(O)CC (centres undefined)	700 mg/kg
CCN(CC)CCOC(=O)c1ccc(N)cc1	200 mg/kg
CCN(CC)CCC1(c2ccccc2)C(=O)Oc2ccccc21 (centres undefined)	600 mg/kg
CCOC(=O)C1=CN(C)C2CCCC(C)N2C1=O (centres undefined)	378 mg/kg
CC1=C(C)C(=O)C(C(CCCCCC(=O)O)c2ccccc2)=C(C)C1=O (racemic)	3750 mg/kg
CC(CN1C(=O)N(CC2CO2)C(C)(C)C1=O)OCC1CO1 (centres undefined)	1800 mg/kg
C[N+]1(CCC(O)(c2ccccc2)c2cccs2)CCOCC1 (centres undefined)	2300 mg/kg
CNC(=O)ON=C1CCCC1(C)C#N (centres undefined)	18 mg/kg
Nc1ccc(OC(F)(F)C(F)F)c(N)c1	1070 mg/kg
O=C=NCc1ccc(CN=C=O)cc1	4500 mg/kg
OCCN1CCN(CCCN2c3ccccc3Sc3cc(Cl)cnc32)CC1	657 mg/kg
Oc1cccc2cccnc12	1200 mg/kg
CCN1CN(CC)CN(CC)C1	316 mg/kg
CCC(C)NC(=S)C(=S)NC(C)CC (centres undefined)	6 mg/kg
O=C(CCl)OCCOCCO	770 mg/kg
CCc1occc(=O)c1O	1150 mg/kg
